Data reported in paper PMC9516332 (Frontiers in Oncology, 2022).
Where two headings read alike, the source gives them in different places.

Legend:
Assay in all cases: Kinase panel profiling at 1 µmol/L (MSA or IMAP), percentage inhibition
Format in all cases: biochemical
[1] = target: panel of 255 wild-type kinases (Homo sapiens, UniProt Q9Y2H1); conditions: NDR2; 1 µmol/L single concentration; read-out: %-inhibition, NDR2
[2] = target: T1, panel of 255 wild-type kinases (Homo sapiens, UniProt Q13470); conditions: kinase TNK1; 1 µmol/L single concentration; read-out: %-inhibition at 1 µmol/L, TNK1
T1 sequence (Q13470 1-666): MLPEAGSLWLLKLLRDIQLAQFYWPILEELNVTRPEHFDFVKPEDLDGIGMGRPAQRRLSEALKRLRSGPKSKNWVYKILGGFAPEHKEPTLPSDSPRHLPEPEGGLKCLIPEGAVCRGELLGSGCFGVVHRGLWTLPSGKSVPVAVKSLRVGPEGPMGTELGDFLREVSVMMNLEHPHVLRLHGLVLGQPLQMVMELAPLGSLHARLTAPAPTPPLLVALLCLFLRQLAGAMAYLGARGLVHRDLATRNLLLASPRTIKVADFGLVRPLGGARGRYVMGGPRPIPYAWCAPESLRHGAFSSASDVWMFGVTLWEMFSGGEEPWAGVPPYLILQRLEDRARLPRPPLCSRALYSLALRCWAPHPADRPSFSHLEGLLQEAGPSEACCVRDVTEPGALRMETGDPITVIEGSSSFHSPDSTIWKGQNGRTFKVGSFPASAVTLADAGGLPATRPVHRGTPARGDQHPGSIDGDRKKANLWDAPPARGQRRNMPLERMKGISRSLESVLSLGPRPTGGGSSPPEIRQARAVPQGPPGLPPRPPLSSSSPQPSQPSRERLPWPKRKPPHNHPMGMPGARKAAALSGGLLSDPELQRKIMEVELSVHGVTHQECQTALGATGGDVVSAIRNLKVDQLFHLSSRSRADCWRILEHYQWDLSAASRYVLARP

[3] = target: panel of 255 wild-type kinases (Homo sapiens, UniProt Q13464); conditions: kinase ROCK1; 1 µmol/L single concentration; read-out: %-inhibition at 1 µmol/L, ROCK1
[4] = target: T2, panel of 255 wild-type kinases (Homo sapiens, UniProt Q96PN8); conditions: kinase TSSK3; 1 µmol/L single concentration; read-out: %-inhibition at 1 µmol/L, TSSK3
T2 sequence (Q96PN8 1-268): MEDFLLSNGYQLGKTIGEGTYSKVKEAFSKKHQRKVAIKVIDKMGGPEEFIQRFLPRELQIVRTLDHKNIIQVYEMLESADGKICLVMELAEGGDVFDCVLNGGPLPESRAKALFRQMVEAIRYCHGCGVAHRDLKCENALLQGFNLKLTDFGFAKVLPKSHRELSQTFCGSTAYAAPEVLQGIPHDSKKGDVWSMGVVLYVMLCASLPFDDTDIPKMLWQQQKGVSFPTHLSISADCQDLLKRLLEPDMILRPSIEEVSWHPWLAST

[5] = target: panel of 255 wild-type kinases (Homo sapiens, UniProt Q13131); conditions: AMPKα1/β1/γ1 kinase assay; 1 µmol/L single concentration; read-out: %-inhibition AMPKα1/β1/γ1
[6] = target: panel of 255 wild-type kinases (Homo sapiens, UniProt P06239); conditions: read-out: %-inhibition at 1 µmol/L, LCK
[7] = target: panel of 255 wild-type kinases (Homo sapiens, UniProt Q9UPE1); conditions: MSSK1; 1 µmol/L single concentration; read-out: %-inhibition, MSSK1
[8] = target: panel of 255 wild-type kinases (Homo sapiens, UniProt P07332); conditions: kinase FES; 1 µmol/L single concentration; read-out: %-inhibition at 1 µmol/L, FES
[9] = target: panel of 255 wild-type kinases (Homo sapiens, UniProt Q9NQU5); conditions: PAK6; 1 µmol/L single concentration; read-out: %-inhibition, PAK6
[10] = target: panel of 255 wild-type kinases (Homo sapiens, UniProt Q13557); conditions: CaMK2δ kinase assay; 1 µmol/L single concentration; read-out: %-inhibition CaMK2δ
[11] = target: panel of 255 wild-type kinases (Homo sapiens, UniProt Q9Y3S1); conditions: kinase WNK2; 1 µmol/L single concentration; read-out: %-inhibition at 1 µmol/L, WNK2
[12] = target: T3, panel of 255 wild-type kinases (Homo sapiens, UniProt Q96L34); conditions: MARK4; 1 µmol/L single concentration; read-out: %-inhibition, MARK4
T3 sequence (Q96L34 1-752): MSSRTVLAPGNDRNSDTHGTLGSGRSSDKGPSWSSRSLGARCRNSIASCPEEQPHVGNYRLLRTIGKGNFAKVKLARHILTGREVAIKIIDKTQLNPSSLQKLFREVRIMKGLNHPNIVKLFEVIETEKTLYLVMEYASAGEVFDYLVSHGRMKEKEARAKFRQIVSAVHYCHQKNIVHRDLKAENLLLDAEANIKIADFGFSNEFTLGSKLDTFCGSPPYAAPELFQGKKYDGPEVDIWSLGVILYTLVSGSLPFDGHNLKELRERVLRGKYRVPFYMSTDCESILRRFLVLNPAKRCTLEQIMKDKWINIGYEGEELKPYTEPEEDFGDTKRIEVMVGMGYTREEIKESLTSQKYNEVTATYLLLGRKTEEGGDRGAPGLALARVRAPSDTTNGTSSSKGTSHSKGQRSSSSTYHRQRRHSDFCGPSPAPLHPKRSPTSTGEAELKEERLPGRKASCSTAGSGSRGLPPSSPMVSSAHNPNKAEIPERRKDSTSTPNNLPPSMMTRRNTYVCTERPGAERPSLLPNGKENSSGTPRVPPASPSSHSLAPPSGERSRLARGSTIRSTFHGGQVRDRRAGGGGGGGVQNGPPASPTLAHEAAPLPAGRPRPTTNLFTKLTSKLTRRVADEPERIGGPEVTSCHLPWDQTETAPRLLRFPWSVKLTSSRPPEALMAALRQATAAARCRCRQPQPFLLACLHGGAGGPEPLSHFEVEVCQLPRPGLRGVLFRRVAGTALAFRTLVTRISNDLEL

[13] = target: panel of 255 wild-type kinases (Homo sapiens, UniProt Q13177); conditions: PAK2; 1 µmol/L single concentration; read-out: %-inhibition, PAK2
[14] = kinase LCK, 1 µmol/L single concentration

Row | inhibition at 1 µM [6] [%] | Structure (SMILES) | inhibition at 1 µM [1] [%] | inhibition at 1 µM [2] [%] | inhibition at 1 µM [3] [%] | inhibition at 1 µM [4] [%] | inhibition at 1 µM [5] [%] | inhibition at 1 µM [7] [%] | inhibition at 1 µM [8] [%] | inhibition at 1 µM [9] [%] | inhibition at 1 µM [10] [%] | inhibition at 1 µM [11] [%] | inhibition at 1 µM [12] [%] | inhibition at 1 µM [13] [%] | inhibition at 1 µM [6, 14] [%]
1 | 20 | Cc1cc(Nc2ncnc3ccc(NC4=NC(C)(C)CO4)cc23)ccc1Oc1ccn2ncnc2c1 [tucatinib] | -0.504 | 4.33 | -0.767 | -0.029 | -4 | 1.14 | 1.74 | 6.34 | -3 | 0.536 | -0.473 | -1.88 | –
2 | – | Cn1cnc2c(F)c(Nc3ccc(Br)cc3F)c(C(=O)NOCCO)cc21 [binimetinib] | -1.45 | -8 | -7 | 2.62 | -7 | -4.37 | 6 | 4.75 | -4 | -2.48 | -4 | 12 | -0.655
3 | – | Cc1nc(NC(=O)N2CCC[C@H]2C(N)=O)sc1-c1ccnc(C(C)(C)C(F)(F)F)c1 [alpelisib] | -2 | -4.23 | -0.415 | 0.673 | -5 | -3.38 | -3.47 | 10 | 0.814 | -3.36 | 0.414 | -7 | 5
4 | – | C=CC(=O)N1CCC([C@@H]2CCNc3c(C(N)=O)c(-c4ccc(Oc5ccccc5)cc4)nn32)CC1 [zanubrutinib] | 0.505 | 1.66 | -1.57 | 0.315 | -5.51 | -2.31 | 1.42 | 11 | 3 | 2 | -7.42 | 10 | 67
5 | – | CCN1CCN(c2ccc(Nc3cc(N(C)C(=O)Nc4c(Cl)c(OC)cc(OC)c4Cl)ncn3)cc2)CC1 [infigratinib] | -3.19 | 21 | 0.396 | -1.43 | -4 | -2.83 | 20 | 10 | -1.48 | 1 | -3 | 1.66 | 91
6 | – | COC(=O)N[C@@H](C)CNc1nccc(-c2cn(C(C)C)nc2-c2cc(Cl)cc(NS(C)(=O)=O)c2F)n1 [encorafenib] | 5 | -3.4 | 0.403 | 4 | -2.31 | 1.39 | 7 | 13 | -2.79 | -0.751 | 2.32 | 9.49 | 1.39
7 | – | CCc1nc(C(N)=O)c(Nc2ccc(N3CCC(N4CCN(C)CC4)CC3)c(OC)c2)nc1NC1CCOCC1 [gilteritinib] | 66 | 97 | 60 | 11 | 0.625 | 22 | 76 | 22 | 84 | -1 | 53 | 10 | 97
8 | – | COc1cc2ncnc(Nc3ccc(F)c(Cl)c3)c2cc1NC(=O)/C=C/CN1CCCCC1 [dacomitinib] | -1.58 | 35 | -2.68 | 3 | -12 | 0.445 | 1.56 | 6.65 | 9 | -4 | 4.31 | 2.5 | 93
9 | – | Cn1cc(-c2cc3c(N4CCN(c5ncc([C@@](C)(N)c6ccc(F)cc6)cn5)CC4)ncnn3c2)cn1 [avapritinib] | -2.84 | 19 | 2 | -4 | 9 | 0.0476 | 1.65 | 9 | -2.56 | 0.928 | -5.63 | -4.42 | 92
10 | – | CCn1c(=O)c(-c2cc(NC(=O)Nc3ccccc3)c(F)cc2Br)cc2cnc(NC)cc21 [ripretinib] | 2.69 | 17 | -2.14 | -0.0717 | -10 | -0.94 | 23 | 1.15 | 0.353 | -1.64 | -2.13 | 4.69 | 99
